The values below come from ChEMBL document CHEMBL1155191, “Simple dihydrosphyngosine analogues with potent activity against MDR-Mycobacterium tuberculosis” (2009).

In brackets after ≈: the same amount, converted by molar mass.

Format in all cases: functional
For experiment [1], the system named is Mycobacterium tuberculosis. Briefly: Ratio of ethambutol MIC to compound MIC for Mycobacterium tuberculosis CIB99.
Experiment [2] concerns Mycobacterium tuberculosis. The experiment can be described thus: Antimycobacterial activity against Mycobacterium tuberculosis H37Rv ATCC 27294 after 5 to 7 days by microplate alamar blue assay. A general note: Resazurin is reduced to fluorescent resorufin, in cell work by metabolically active cells.
The test system of experiment [3] is Mycobacterium tuberculosis. The experiment can be described thus: Antimycobacterial activity against Mycobacterium tuberculosis CIB99 after 5 to 7 days by microplate alamar blue assay.
Experiment [4] deals with Mycobacterium tuberculosis. The experiment can be described thus: Ratio of ethambutol MIC to compound MIC for Mycobacterium tuberculosis H37Rv ATCC 27294.

A word on the MIC: it is the lowest concentration found to suppress growth. Low values mean inhibition by little substance, high ones a need for much substance. With `CCCCCCCCCCCCCCC(O)CNCc1ccccc1` (stereo not given), the Ratio is recorded as more than 2.2 in experiment [1] and 0.28 in experiment [4]. Moreover, the MIC in experiment [2] worked out at 36 µM (≈ 12.5 µg/mL); in experiment [3], 72 µM (≈ 25 µg/mL).

As to `CCCCCCCCCCCCCCC(COCc1ccccc1)NCC(=O)OCC` (stereo not given), the Ratio in experiment [1] is on record as more than 2.2; in experiment [4] it was 0.13. Moreover, the MIC in experiment [2] and in experiment [3] was 72 µM (≈ 31.2 µg/mL) in each case.

For `CCCCCCCCCCCCCCC(CN(CC(=O)OCC)CC(=O)OCC)NC(=O)OC(C)(C)C` (stereo not given), the Ratio in experiment [1] is more than 2.7; in experiment [4] it was 0.17. The MIC in experiment [2] and in experiment [3] was 59 µM (≈ 31.2 µg/mL) in each case.

For the compound `CCCCCCCCCCCCCCC(COCc1ccccc1)NC(=O)CCC(=O)O` (stereo not given), the Ratio in experiment [1] is reported as more than 1.1; in experiment [4], 0.07. Besides, the MIC in experiment [2] and in experiment [3] was 140 µM (≈ 62.7 µg/mL) throughout.

Regarding `CCCCCCCCCCCCCCC(O)CNC1CCCCC1` (stereo not given), the Ratio in experiment [1] was more than 14; in experiment [4] it was 0.3. Besides, the MIC in experiment [2] amounted to 33 µM (≈ 11.2 µg/mL); in experiment [3], 11 µM (≈ 3.74 µg/mL).

On to `CCCCCCCCCCCCCCC(COCc1ccccc1)NCC` (stereo not given), for which the figures for the Ratio in experiment [1] and in experiment [4] were more than 9.5 and 0.6, respectively. Besides, the MIC in experiment [2] and in experiment [3] was 16.6 µM (≈ 6.24 µg/mL) throughout.

For the compound `CCCCCCCCCCCCCCC(COCc1ccccc1)N(CC)CC` (stereo not given), the Ratio in experiment [1] was more than 50; in experiment [4], 3.2. Besides, the MIC in experiment [2] and in experiment [3] was 3.1 µM (≈ 1.25 µg/mL) throughout.

As for `CCCCCCCCCCCCCCC(CO)N(CC)CC` (stereo not given), the Ratio is on record as more than 3.9 in experiment [1] and 0.5 in experiment [4]. For the same compound, the figures for the minimum inhibitory concentration (MIC) in experiment [2] and in experiment [3] were 20 µM (≈ 6.27 µg/mL) and 40 µM (≈ 12.5 µg/mL), respectively.

Regarding `CC[C@@H](CO)NCCN[C@@H](CC)CO` [ETHAMBUTOL], the Ratio in experiment [1] and in experiment [4] was 1 in each case. Also, the results for the MIC in experiment [2] and in experiment [3] were 9.9 µM (≈ 2.02 µg/mL) and more than 158 µM, respectively.

In the case of `CCCCCCCCCCCCCCC(CNC(=O)CCCC(=O)O)NC(=O)OC(C)(C)C` (stereo not given), the Ratio is more than 1.2 in experiment [1] and 0.07 in experiment [4]. In addition, the minimal inhibitory concentration (MIC) in experiment [2] and in experiment [3] was 133 µM (≈ 62.6 µg/mL) each time.

In the case of `CCCCCCCCCCCCCCC(CO)NC(=O)OC(C)(C)C` (stereo not given), the Ratio is given as more than 5 in experiment [1] and 0.12 in experiment [4]. Further, the MIC in experiment [2] and in experiment [3] was 84 µM (≈ 30 µg/mL) in each case.

Take `CCCCCCCCCCCCCCC(N)CO` (stereo not given): the figures for the Ratio in experiment [1] and in experiment [4] were more than 16 and 0.41, respectively. Also, the MIC in experiment [2] is 24 µM (≈ 6.18 µg/mL); in experiment [3], 49 µM (≈ 12.6 µg/mL).

With `CCCCCCCCCCCCCCC(CNCC)NC(=O)OC(C)(C)C` (stereo not given), the results for the Ratio in experiment [1] and in experiment [4] were more than 4.9 and 0.3, respectively. Further, the MIC in experiment [2] and in experiment [3] was 32 µM (≈ 12.3 µg/mL) each time.

With `CCCCCCCCCCCCCCC(N)CN` (stereo not given), the Ratio is more than 12 in experiment [1] and 0.8 in experiment [4]. The MIC in experiment [2] and in experiment [3] was 12.6 µM (≈ 3.23 µg/mL) each time.

On to `CCCCCCCCCCCCCCC(CN)NC(=O)OC(C)(C)C` (stereo not given), for which the figures for the Ratio in experiment [1] and in experiment [4] were more than 5.2 and 0.3, respectively. Further, the MIC in experiment [2] and in experiment [3] was 30 µM (≈ 10.7 µg/mL) each time.

As to `CO[C@H]1/C=C/O[C@@]2(C)Oc3c(C)c(O)c4c(O)c(c(/C=N/N5CCN(C)CC5)c(O)c4c3C2=O)NC(=O)/C(C)=C\C=C\[C@H](C)[C@H](O)[C@@H](C)[C@@H](O)[C@@H](C)[C@H](OC(C)=O)[C@@H]1C` [RIFAMPIN], the Ratio in experiment [1] was found to be 65; in experiment [4], 650. For the same compound, the MIC in experiment [2] was 0.152 µM (≈ 0.125 µg/mL); in experiment [3], more than 2.43 µM.

Take `CCCCCCCCCCCCCCC(N)CN(CC)CC` (stereo not given): the Ratio in experiment [1] was more than 19; in experiment [4] it was 2.5. The MIC in experiment [2] was found to be 4 µM (≈ 1.25 µg/mL); in experiment [3] it was 8 µM (≈ 2.5 µg/mL).

Regarding `CCCCCCCCCCCCCCC(CN(CC)CC)NC(=O)OC(C)(C)C` (stereo not given), the Ratio is reported as more than 10 in experiment [1] and 0.65 in experiment [4]. The MIC in experiment [2] and in experiment [3] was 15.2 µM (≈ 6.27 µg/mL) in each case.

Regarding `CCCCCCCCCCCCCCC(N)COCc1ccccc1` (stereo not given), the results for the Ratio in experiment [1] and in experiment [4] were more than 43 and 2.8, respectively. Also, the MIC in experiment [2] and in experiment [3] was 3.6 µM (≈ 1.25 µg/mL) throughout.

Consider `CCCCCCCCCCCCCCC(COCc1ccccc1)NC(=O)CCCC(=O)O` (stereo not given), for which the figures for the Ratio in experiment [1] and in experiment [4] were more than 2.3 and 0.14, respectively. In addition, the MIC in experiment [2] and in experiment [3] was 68 µM (≈ 31.4 µg/mL) each time.
